Our source for the GI50 and Kd values is patent US20260062422A1 (Halda Therapeutics OpCo, Inc., priority 2022, published 2026).

In assay [1] the test system is T-Rex 293 cell line SC cells lacking increased expression of progesterone receptor isoform B protein. The assay can be described thus: Cellular growth inhibition, T-Rex 293 SC cells without doxycycline, Example 45. Format: cell-based. The settings on record: T-Rex 293 SC cells not exposed to doxycycline, 72 hours treatment, CellTiter-Glo 2.0. The procedure: (§1) The following types of cells were prepared for this experiment: (i) a T-Rex 293 cell line having increased expression of progesterone receptor isoform B protein due to exposure to doxycycline and (ii) a T-Rex 293 cell line lacking increased expression of progesterone receptor isoform B protein. Ability of the test compounds to inhibit proliferation of the foregoing cell types was evaluated according to the procedures set forth below.
(§2) The doxycycline-inducible progesterone receptor isoform B protein expressing cell line was established using the following protocol: T-Rex 293 cells were purchased from Invitrogen (Cat #R71007) and transfected using Lipofectamine 2000 with the wild-type progesterone receptor B protein sequence cloned into the pcDNA4/TO vector. Transfected cells were selected using 400 μg/mL Zeocin (Invitrogen Cat #R25001). Following selection, single clones were raised and maintained in Dulbecco's Modified Eagle Medium (DMEM) supplemented with 10% w/w Tetracycline-free fetal bovine serum (FBS) and 250 μg/mL Zeocin. Clones were analyzed for expression of progesterone receptor isoform B protein in the presence and absence of 10 ng/mL doxycycline (Sigma Cat #D9891), and a single doxycycline-inducible clone (hereinafter “SC”) was selected for use in downstream assays.
(§3) The SC cells were seeded on poly-D-lysine coated, black clear-bottom 384-well plates at 2500/well, in 25 μL Phenol Red Free Dulbecco's Modified Eagle Medium (DMEM) supplemented with 10% w/w charcoal-dextran treated fetal bovine serum (FBS) and 1% w/w pen-strep, with or without 10 ng/mL doxycycline. Pen-Strep is a commercially available mixture of penicillin G and streptomycin, which is used in mammalian cell culture media to prevent bacterial contamination. Phenol Red Free Dulbecco's Modified Eagle Medium (DMEM) supplemented with 10% w/w charcoal-dextran treated fetal bovine serum (FBS) and 1% w/w pen-strep, with or without 10 ng/mL doxycycline is herein referred to as Treatment Medium. Following seeding of cells in the plates, the plates were spun at 300×g for 30 seconds, then equilibrated to room temperature for 30 minutes, and then deposited in a humidified tissue culture incubator maintained at 37° C. with 5% CO2.
(§4) At 24 hours after seeding of the cells, dilutions of test compound were prepared in DMSO and dissolved in Treatment Medium, to achieve a final DMSO concentration of 0.5% w/w, thereby providing the Test Compound Solution. A 25 μL aliquot of the Test Compound Solution was added to cells in the well plates. An equal volume of a solution containing DMSO and Treatment Medium was used as a negative control. Following treatment of cells with Test Compound Solution or said equal volume of a solution containing DMSO and Treatment Medium, the plates were spun at 300×g for 30 seconds, and then left in an incubator for 72 hours.
(§5) At the end of the treatment duration, cell viability was quantified with CellTiter-Glo 2.0 reagent (Promega Cat #G9243). For this purpose, plates were equilibrated to room temperature for 30 minutes, and then 25 μL of CellTiter-Glo 2.0 reagent was added to cells in the plate wells. Plates were then agitated on a shaker for two minutes at 500 rpm and subsequently incubated at room temperature for 10 minutes. Following incubation, the plates were spun at 3000×g for 30 seconds, then sealed with an optical adhesive cover, and luminescence readings were measured with an EnVision Plate Reader (Perkin Elmer).
(§6) Data was normalized using zero luminescence for baseline. A four-parameter non-linear regression curve fit was applied to dose-response data in GraphPad Prism data analysis software to determine the half-maximal growth inhibitory concentration (GI50) for each test compound.

The target of assay [2] is T1, androgen receptor (Homo sapiens, UniProt P10275).
T1 sequence (P10275 1-920 T878A): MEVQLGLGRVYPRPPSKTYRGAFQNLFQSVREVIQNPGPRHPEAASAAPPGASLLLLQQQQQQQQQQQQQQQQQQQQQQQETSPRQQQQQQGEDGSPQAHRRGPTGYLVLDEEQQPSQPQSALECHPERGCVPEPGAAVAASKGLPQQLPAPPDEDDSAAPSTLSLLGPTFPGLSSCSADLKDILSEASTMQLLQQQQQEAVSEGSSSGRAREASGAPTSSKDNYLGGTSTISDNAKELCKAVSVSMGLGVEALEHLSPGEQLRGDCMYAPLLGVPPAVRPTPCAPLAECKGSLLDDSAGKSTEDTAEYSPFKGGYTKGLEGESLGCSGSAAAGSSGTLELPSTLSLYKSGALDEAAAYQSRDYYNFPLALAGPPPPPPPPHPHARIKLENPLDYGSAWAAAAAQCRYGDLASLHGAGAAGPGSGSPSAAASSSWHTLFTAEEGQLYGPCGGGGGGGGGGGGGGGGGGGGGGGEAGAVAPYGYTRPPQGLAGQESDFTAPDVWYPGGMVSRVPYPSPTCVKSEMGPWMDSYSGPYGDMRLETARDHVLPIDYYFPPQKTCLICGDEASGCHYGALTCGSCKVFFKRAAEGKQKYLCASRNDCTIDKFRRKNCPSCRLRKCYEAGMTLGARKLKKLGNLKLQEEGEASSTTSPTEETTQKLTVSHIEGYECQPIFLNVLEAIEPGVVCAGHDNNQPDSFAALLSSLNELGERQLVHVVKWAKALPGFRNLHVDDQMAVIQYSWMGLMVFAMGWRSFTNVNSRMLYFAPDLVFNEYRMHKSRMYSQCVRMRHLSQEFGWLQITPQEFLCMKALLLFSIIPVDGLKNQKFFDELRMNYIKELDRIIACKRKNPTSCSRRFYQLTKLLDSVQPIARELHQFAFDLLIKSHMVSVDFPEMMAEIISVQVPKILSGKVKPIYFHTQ
The assay can be described thus: Assay for binding affinity to androgen receptor ([3H]methyltrienolone radioligand, cell cytosol). The settings on record: 1 nM [3H]methyltrienolone, 24 hours at 4° C., Table 5. The essentials: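 Competition binding in cell cytosol ([…]) with 1 nM [3H]methyltrienolone, 24 hours at 4° C, in pH 7.4 Hepes-Tris buffer with 5 μM triamcinolone acetonide; nonspecific binding defined by 1 μM testosterone. Filtration and scintillation counting; values reported as % inhibition of specific binding.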

Assay [3] in a line: Cellular growth inhibition, T-Rex 293 SC cells with doxycycline (progesterone receptor isoform B induced), Example 45. Format: cell-based. The settings on record: progesterone receptor isoform B induced with 10 ng/mL doxycycline, 72 hours, CellTiter-Glo 2.0, Table 11. On the procedure:
as §1, §2, §3, §4, §5, §6

Consider `Cc1sc2c(c1C)C(c1ccc(N3CC(C4CCN(c5ncc(C(=O)N[C@H]6C(C)(C)[C@H](Oc7ccc(C#N)c(Cl)c7)C6(C)C)cn5)CC4)C3)cc1)=N[C@@H](C)c1nnc(C)n1-2` [Compound I-271], for which the values for the GI50 in assay [1] and in assay [3] were 0.5 to 1.5 µM and below 0.5 µM, respectively. In assay [2], this molecule displayed a dissociation constant Kd below 0.05 µM.
On the same counts, the results for `CCNC(=O)C[C@@H]1N=C(c2ccc(OCCOCCOC3CCN(c4ncc(C(=O)N[C@H]5C(C)(C)[C@H](Oc6ccc(C#N)c(Cl)c6)C5(C)C)cn4)CC3)cc2)c2c(sc(C)c2C)-n2c(C)nnc21` [Compound I-44] are below 0.5 µM, below 0.5 µM and below 0.05 µM.
On the same counts, the results for `Cc1sc2c(c1C)C(c1ccc(Cl)cc1)=N[C@H](CC(=O)NCCOCCOCCOCCOCCOCCOCCOC1CCN(c3ncc(C(=O)N[C@H]4C(C)(C)[C@H](Oc5ccc(C#N)c(Cl)c5)C4(C)C)cn3)CC1)c1nnc(C)n1-2` [Compound I-9] are 1.5 to 3 µM, below 0.5 µM and below 0.05 µM.
On the same counts, the results for `Cc1sc2c(c1C)C(c1ccc(Cl)cc1)=N[C@@H](CC(=O)NCCOC1CCN(c3ncc(C(=O)N[C@H]4C(C)(C)[C@H](Oc5ccc(C#N)c(Cl)c5)C4(C)C)cn3)CC1)c1nnc(C)n1-2` [Compound I-6] are below 0.5 µM, below 0.5 µM and below 0.05 µM.
With `Cc1sc2c(c1C)C(c1ccc(OC3CC4(C3)CC3(CCN(c5ncc(C(=O)N[C@H]6C(C)(C)[C@H](Oc7ccc(C#N)c(Cl)c7)C6(C)C)cn5)CC3)C4)cc1)=N[C@@H](Cc1ncco1)c1nnc(C)n1-2` [Compound I-283], the values for the GI50 in assay [1] and in assay [3] were above 3 µM and below 0.5 µM, respectively. Further, the Kd in assay [2] is below 0.05 µM.
For the molecule `CCNC(=O)C[C@@H]1N=C(c2ccc(OCCCC#Cc3ncc(C(=O)N[C@H]4C(C)(C)[C@H](Oc5ccc(C#N)c(Cl)c5)C4(C)C)cn3)cc2)c2c(sc(C)c2C)-n2c(C)nnc21` [Compound I-83], the 50% growth inhibitory concentration (GI50) in assay [1] was 0.5 to 1.5 µM; in assay [3], below 0.5 µM. This molecule gave a Kd in assay [2] below 0.05 µM.
On the same counts, the results for `Cc1sc2c(c1C)C(c1ccc(Cl)cc1)=N[C@@H](CC(=O)NCCOCCOCCOCCOCCOC1CCN(c3ncc(C(=O)N[C@H]4C(C)(C)[C@H](Oc5ccc(C#N)c(Cl)c5)C4(C)C)cn3)CC1)c1nnc(C)n1-2` [Compound I-8] are 0.5 to 1.5 µM, below 0.5 µM and below 0.05 µM.
As for `Cc1sc2c(c1C)C(c1ccc(Cl)cc1)=N[C@@H](CC(=O)NCCOCCOCCOC1CCN(c3ncc(C(=O)N[C@H]4C(C)(C)[C@H](Oc5ccc(C#N)c(Cl)c5)C4(C)C)cn3)CC1)c1nnc(C)n1-2` [Compound I-7], the GI50 in assay [1] and in assay [3] was below 0.5 µM throughout. In assay [2], this molecule registered a Kd below 0.05 µM.
For `Cc1sc2c(c1C)C(c1cccc(OCCOC3CCN(c4ncc(C(=O)N[C@H]5C(C)(C)[C@H](Oc6ccc(C#N)c(Cl)c6)C5(C)C)cn4)CC3)c1)=N[C@@H](CC(=O)O)c1nnc(C)n1-2` [Compound I-41], the GI50 in assay [1] and in assay [3] was above 3 µM in each case. The same molecule gave a dissociation constant Kd in assay [2] below 0.05 µM.
In the case of `CCNC(=O)C[C@@H]1N=C(c2ccc(N3CCN(CC4CCN(c5ncc(C(=O)N[C@H]6C(C)(C)[C@H](Oc7ccc(C#N)c(Cl)c7)C6(C)C)cn5)CC4)CC3)cc2)c2c(sc(C)c2C)-n2c(C)nnc21` [Compound I-105, N-[3-(3-chloro-4-cyano-phenoxy)-2,2,4,4-tetramethyl-cyclobutyl]-2-[4-[[4-[4-[(9S)-9-[2-(ethylamino)-2-oxo-ethyl]-4,5,13-trimethyl-3-thia-1,8,11,12-tetrazatricyclo[8.3.0.02,6]trideca-2(6),4,7,10,12-pentaen-7-yl]phenyl]piperazin-1-yl]methyl]-1-piperidyl]pyrimidine-5-carboxamide], the GI50 in assay [1] and in assay [3] was below 0.5 µM throughout. The molecule also displayed a dissociation constant (Kd) in assay [2] below 0.05 µM.
As for `CCNC(=O)C[C@@H]1N=C(c2cccc(OCCOC3CCN(c4ncc(C(=O)N[C@H]5C(C)(C)[C@H](Oc6ccc(C#N)c(Cl)c6)C5(C)C)cn4)CC3)c2)c2c(sc(C)c2C)-n2c(C)nnc21` [Compound I-46, N-((1r,3r)-3-(3-chloro-4-cyanophenoxy)-2,2,4,4-tetramethylcyclobutyl)-2-(4-(2-(3-((S)-6-(2-(ethylamino)-2-oxoethyl)-2,3,9-trimethyl-6H-thieno[3,2-f][1,2,4]triazolo[4,3-a][1,4]diazepin-4-yl)phenoxy)ethoxy)piperidin-1-yl)pyrimidine-5-carboxamide], the results for the concentration for 50% growth inhibition (GI50) in assay [1] and in assay [3] were 0.5 to 1.5 µM and below 0.5 µM, respectively. Besides, in assay [2], the Kd was below 0.05 µM.
On the same counts, the results for `Cc1sc2c(c1C)C(c1ccc(Cl)cc1)=N[C@@H](CC(=O)NCCOCCOCCOCCOCCOCCOCCN(C)c1ncc(C(=O)N[C@H]3C(C)(C)[C@H](Oc4ccc(C#N)c(Cl)c4)C3(C)C)cn1)c1nnc(C)n1-2` [Compound I-4] are 1.5 to 3 µM, below 0.5 µM and below 0.05 µM.
